#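 Method: 48-hour compound exposure of cells in 96-well plates, five concentrations, linear interpolation of endpoints. Here, GI50 denotes the concentration required for 50% inhibition of growth. TGI denotes the concentration required for complete inhibition of growth.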
# Legend:
# Experiment in all cases: DTP human tumour cell line panel, 48 h
# 786-0 renal = test system: 786-0 renal
# SK-MEL-28 melanoma = test system: SK-MEL-28 melanoma
# RPMI-8226 leukemia = test system: RPMI-8226 leukemia
# DMS 114 small cell lung = test system: DMS 114 small cell lung
# NCI-H522 lung = test system: NCI-H522 lung
# SF-268 CNS = test system: SF-268 CNS
# COLO 205 colon = test system: COLO 205 colon
# M14 melanoma = test system: M14 melanoma
# HCT-116 colon = test system: HCT-116 colon
# MALME-3M melanoma = test system: MALME-3M melanoma
# SNB-78 CNS = test system: SNB-78 CNS
# SNB-75 CNS = test system: SNB-75 CNS
# SF-539 CNS = test system: SF-539 CNS
# CCRF-CEM leukemia = test system: CCRF-CEM leukemia
# OVCAR-4 ovarian = test system: OVCAR-4 ovarian
# UACC-62 melanoma = test system: UACC-62 melanoma
# ACHN renal = test system: ACHN renal
# RXF-631 renal = test system: RXF-631 renal
# IGROV1 ovarian = test system: IGROV1 ovarian
# SR leukemia = test system: SR leukemia
# M19-MEL melanoma = test system: M19-MEL melanoma
# HOP-92 NSCLC = test system: HOP-92 NSCLC
# A498 renal = test system: A498 renal
# DMS 273 small cell lung = test system: DMS 273 small cell lung
# HL-60(TB) leukemia = test system: HL-60(TB) leukemia
# SK-MEL-2 melanoma = test system: SK-MEL-2 melanoma
# MOLT-4 leukemia = test system: MOLT-4 leukemia
# DLD-1 colon = test system: DLD-1 colon
# SN12C renal = test system: SN12C renal
# HCC-2998 colon = test system: HCC-2998 colon
# CAKI-1 renal = test system: CAKI-1 renal
# LXFL 529 NSCLC = test system: LXFL 529 NSCLC
# SK-OV-3 ovarian = test system: SK-OV-3 ovarian
# XF 498 CNS = test system: XF 498 CNS
# K-562 leukemia = test system: K-562 leukemia
# NCI-H226 lung = test system: NCI-H226 lung
# HCT-15 colon = test system: HCT-15 colon
# HOP-62 NSCLC = test system: HOP-62 NSCLC
# UO-31 renal = test system: UO-31 renal
# NCI-H23 lung = test system: NCI-H23 lung
smiles,measurement,setting,value
C1C[S][Ge]2([S]CCO1)[S]CCOCC[S]2,GI50,786-0 renal,> 100 µM
same,TGI,786-0 renal,> 100 µM
same,GI50,SK-MEL-28 melanoma,> 100 µM
same,TGI,SK-MEL-28 melanoma,> 100 µM
same,GI50,RPMI-8226 leukemia,> 100 µM
same,TGI,RPMI-8226 leukemia,> 100 µM
same,GI50,DMS 114 small cell lung,> 100 µM
same,TGI,DMS 114 small cell lung,> 100 µM
same,GI50,NCI-H522 lung,> 100 µM
same,TGI,NCI-H522 lung,> 100 µM
same,GI50,SF-268 CNS,> 100 µM
same,TGI,SF-268 CNS,> 100 µM
same,GI50,COLO 205 colon,> 100 µM
same,TGI,COLO 205 colon,> 100 µM
same,GI50,M14 melanoma,> 100 µM
same,TGI,M14 melanoma,> 100 µM
same,GI50,HCT-116 colon,> 100 µM
same,TGI,HCT-116 colon,> 100 µM
same,GI50,MALME-3M melanoma,> 100 µM
same,TGI,MALME-3M melanoma,> 100 µM
same,GI50,SNB-78 CNS,> 100 µM
same,TGI,SNB-78 CNS,> 100 µM
same,GI50,SNB-75 CNS,2.51 µM
same,TGI,SNB-75 CNS,48.4 µM
same,GI50,SF-539 CNS,> 100 µM
same,TGI,SF-539 CNS,> 100 µM
same,GI50,CCRF-CEM leukemia,> 100 µM
same,TGI,CCRF-CEM leukemia,> 100 µM
same,GI50,OVCAR-4 ovarian,> 100 µM
same,TGI,OVCAR-4 ovarian,> 100 µM
same,GI50,UACC-62 melanoma,> 100 µM
same,TGI,UACC-62 melanoma,> 100 µM
same,GI50,ACHN renal,> 100 µM
same,TGI,ACHN renal,> 100 µM
same,GI50,RXF-631 renal,> 100 µM
same,TGI,RXF-631 renal,> 100 µM
same,GI50,IGROV1 ovarian,> 100 µM
same,TGI,IGROV1 ovarian,> 100 µM
same,GI50,SR leukemia,> 100 µM
same,TGI,SR leukemia,> 100 µM
same,GI50,M19-MEL melanoma,> 100 µM
same,TGI,M19-MEL melanoma,> 100 µM
same,GI50,HOP-92 NSCLC,> 100 µM
same,TGI,HOP-92 NSCLC,> 100 µM
same,GI50,A498 renal,> 100 µM
same,TGI,A498 renal,> 100 µM
same,GI50,DMS 273 small cell lung,> 100 µM
same,TGI,DMS 273 small cell lung,> 100 µM
same,GI50,HL-60(TB) leukemia,> 100 µM
same,TGI,HL-60(TB) leukemia,> 100 µM
same,GI50,SK-MEL-2 melanoma,> 100 µM
same,TGI,SK-MEL-2 melanoma,> 100 µM
same,GI50,MOLT-4 leukemia,> 100 µM
same,TGI,MOLT-4 leukemia,> 100 µM
same,GI50,DLD-1 colon,> 100 µM
same,TGI,DLD-1 colon,> 100 µM
same,GI50,SN12C renal,> 100 µM
same,TGI,SN12C renal,> 100 µM
same,GI50,HCC-2998 colon,> 100 µM
same,TGI,HCC-2998 colon,> 100 µM
same,GI50,CAKI-1 renal,> 100 µM
same,TGI,CAKI-1 renal,> 100 µM
same,GI50,LXFL 529 NSCLC,> 100 µM
same,TGI,LXFL 529 NSCLC,> 100 µM
same,GI50,SK-OV-3 ovarian,> 100 µM
same,TGI,SK-OV-3 ovarian,> 100 µM
same,GI50,XF 498 CNS,> 100 µM
same,TGI,XF 498 CNS,> 100 µM
same,GI50,K-562 leukemia,> 100 µM
same,TGI,K-562 leukemia,> 100 µM
same,GI50,NCI-H226 lung,> 100 µM
same,TGI,NCI-H226 lung,> 100 µM
same,GI50,HCT-15 colon,> 100 µM
same,TGI,HCT-15 colon,> 100 µM
same,GI50,HOP-62 NSCLC,> 100 µM
same,TGI,HOP-62 NSCLC,> 100 µM
same,GI50,UO-31 renal,> 100 µM
same,TGI,UO-31 renal,> 100 µM
same,GI50,NCI-H23 lung,> 100 µM
same,TGI,NCI-H23 lung,> 100 µM

# Reference: PubChem BioAssay (NCI)
